According to ChEMBL document CHEMBL4308832, “Discovery of Allosteric, Potent, Subtype Selective, and Peripherally Restricted TrkA Kinase Inhibitors” (J Med Chem, 2018):

How the values were obtained:
in vitro = conditions: dog, MDCK
physchem = conditions: buffer, pH 7.4
in vivo [1] = conditions: rat, brain, iv, 1 mg/kg
in vivo [2] = conditions: rat, iv, 1 mg/kg
in vivo [3] = conditions: rat, po, 3 mg/kg
in vivo [4] = conditions: rat, po, 3 mg/kg; remark: listed apart in the source
in vivo [5] = conditions: rat, iv, 0.5 mg/kg
in vivo [6] = conditions: rat, po, 2 mg/kg
in vivo [7] = conditions: rat, brain, iv, 0.5 mg/kg
in vivo [8] = conditions: rat, po, 2 mg/kg; remark: listed apart in the source

Row | Papp A→B (in vitro) [×10⁻⁶ cm/s] | logD (physchem) | SMILES | also measured
1 | 10 | 2.7 | NC(=O)c1cc(NC(=O)c2cc(-c3ccccn3)c(F)cc2Cl)n(-c2ccccc2)n1 | –
2 | 17 | 3 | NC(=O)c1cc(NC(=O)c2cc(-c3ccccn3)c(Cl)cc2Cl)n(-c2ccccc2)n1 | –
3 | 17 | 3.1 | CC(C)(O)CNC(=O)c1cc(NC(=O)c2cc(-c3ncccc3F)c(F)cc2Cl)n(-c2ccccc2)n1 | –
4 | 13 | 2.4 | COc1cc(Cl)c(C(=O)Nc2cc(C(N)=O)nn2-c2ccccc2)cc1-c1ccccn1 | –
5 | 19 | 2.6 | NC(=O)c1cc(NC(=O)c2cc(-c3ncccc3F)ccc2Cl)n(-c2ccccc2)n1 | Kp uu at 4 h (in vivo [1]): 0.1; Vd (in vivo [2]): 0.46 L/kg; Tmax (in vivo [3]): 4 h; bioavailability (in vivo [4]): 100%
6 | 12 | 2.6 | Cc1cc(Cl)c(C(=O)Nc2cc(C(N)=O)nn2-c2ccccc2)cc1-c1ccccn1 | –
7 | 23 | 2.7 | NC(=O)c1cc(NC(=O)c2cc(-c3ncccc3F)c(F)cc2Cl)n(-c2ccccc2)n1 | –
8 | 14 | 2.8 | NC(=O)c1cc(NC(=O)c2cc(-c3ncccc3Cl)ccc2Cl)n(-c2ccccc2)n1 | Kp uu at 4 h (in vivo [1]): 0.076; Vd (in vivo [2]): 1.1 L/kg; Tmax (in vivo [3]): 0.9 h; bioavailability (in vivo [4]): 85%
9 | 13 | 2.7 | NC(=O)c1cc(NC(=O)c2cc(-c3ccccn3)c(OC(F)F)cc2Cl)n(-c2ccccc2)n1 | –
10 | 13 | 2.8 | O=C(NCCO)c1cc(NC(=O)c2cc(-c3ncccc3F)c(Cl)cc2Cl)n(-c2ccccc2)n1 | –
11 | 12 | 3.3 | CC(C)(O)CNC(=O)c1cc(NC(=O)c2cc(-c3ncccc3F)c(Cl)cc2Cl)n(-c2ccccc2)n1 | Vd (in vivo [5]): 1.6 L/kg; Tmax (in vivo [6]): 3 h; Kp uu at 4 h (in vivo [7]): 0.015; bioavailability (in vivo [8]): 46%

The next lines start with the compound.

Row | SMILES | Papp A→B (in vitro) [×10⁻⁶ cm/s] | logD (physchem) | also measured
12 | Cc1cc(NC(=O)c2ccc(Cl)cc2Cl)n(-c2ccccc2)n1 | 30 | 3.3 | –
13 | CC(=O)Nc1cccc(-c2ccc(Cl)c(C(=O)Nc3cc(C(N)=O)nn3-c3ccccc3)c2)n1 | 10 | 2.7 | –
14 | O=C(NC1COC1)c1cc(NC(=O)c2cc(-c3ccccn3)c(Cl)cc2Cl)n(-c2ccccc2)n1 | 11 | 3 | –
15 | NCCNC(=O)c1cc(NC(=O)c2cc(-c3ccccn3)c(Cl)cc2Cl)n(-c2ccccc2)n1 | 0.72 | 0.94 | –
16 | O=C(NCCO)c1cc(NC(=O)c2cc(-c3ccccn3)c(Cl)cc2Cl)n(-c2ccccc2)n1 | 12 | 2.8 | –
17 | O=C(NCCO)c1cc(NC(=O)c2cc(-c3ccccn3)c(C(F)(F)F)cc2Cl)n(-c2ccccc2)n1 | 8.5 | 3 | –
18 | NC(=O)c1cc(NC(=O)c2cc(-c3cccc(C(F)F)n3)ccc2Cl)n(-c2ccccc2)n1 | 8.5 | 3.5 | –
19 | NC(=O)c1cccc(-c2ccc(Cl)c(C(=O)Nc3cc(C(N)=O)nn3-c3ccccc3)c2)n1 | 6.1 | 2.3 | –
20 | NC(=O)c1cc(NC(=O)c2cc(-c3ccccn3)c(C3CC3)cc2Cl)n(-c2ccccc2)n1 | – | 3.1 | –
21 | NC(=O)c1cc(NC(=O)c2cc(-c3nc(N)ccc3Cl)ccc2Cl)n(-c2ccccc2)n1 | 11 | 3.2 | –
22 | NC(=O)c1cc(NC(=O)c2cc(-c3cccc(N)n3)c(Cl)cc2Cl)n(-c2ccccc2)n1 | 11 | 2.9 | –
